System: children undergoing tonsillectomy
Experiment: Postoperative analgesia measurements by ABCB1 genotype (Example 7)
Conditions: for Maximum FLACC: median (IQR); for Post-Operative morphine: patients with at least one post-operative intervention
[1] = Blacks, ABCB1 Rs1128503 CC, N=24
[2] = Blacks, ABCB1 Rs1128503 TC, N=18
[3] = Blacks, ABCB1 Rs1128503 TT, N=2
[4] = Blacks, ABCB1 Rs2032582 GA, N=1
[5] = Blacks, ABCB1 Rs2032582 GG, N=35
[6] = Blacks, ABCB1 Rs2032582 GT, N=8
[7] = Blacks, ABCB1 Rs2229109 CA, N=1
[8] = Blacks, ABCB1 Rs2229109 CC, N=43
[9] = Blacks, ABCB1 Rs9282564 AA, N=41
[10] = Blacks, ABCB1 Rs9282564 GA, N=3
[11] = Blacks, ABCB1 rs10456542 CC, N=27
[12] = Blacks, ABCB1 rs10456542 TC, N=14
[13] = Blacks, ABCB1 rs10456542 TT, N=3
[14] = Whites, ABCB1 Rs1128503 CC, N=70
[15] = Whites, ABCB1 Rs1128503 TC, N=102
[16] = Whites, ABCB1 Rs1128503 TT, N=47
[17] = Whites, ABCB1 Rs2032582 GA, N=7
[18] = Whites, ABCB1 Rs2032582 GG, N=65
[19] = Whites, ABCB1 Rs2032582 GT, N=100
[20] = Whites, ABCB1 Rs2032582 TA, N=1
[21] = Whites, ABCB1 Rs2032582 TT, N=46
[22] = Whites, ABCB1 Rs2229109 CA, N=14
[23] = Whites, ABCB1 Rs2229109 CC, N=205
[24] = Whites, ABCB1 Rs9282564 AA, N=171
[25] = Whites, ABCB1 Rs9282564 GA, N=46
[26] = Whites, ABCB1 Rs9282564 GG, N=2
[27] = Whites, ABCB1 rs10456542 CC, N=49
[28] = Whites, ABCB1 rs10456542 TC, N=100
[29] = Whites, ABCB1 rs10456542 TT, N=70

Protocol: All participants received standard perioperative care. Anesthesia was induced using sevoflurane followed by a propofol (2 mg/kg) bolus to facilitate endotracheal intubation. Anesthesia was maintained with sevoflurane without the use of neuromuscular blockade. […] All children receive prophylactic ondansetron (0.1 mg/kg) and dexamethasone (0.1 mg/kg) intraoperatively.
Blood was collected from each participant in the operating room under anesthesia and the DNA was isolated the same day and stored at −20 degree Celsius. Batched genotyping was performed after clinical data was entered on all study participants. The TaqMan allelic discrimination system assays and Genotyper Softerware Version 1.0.1 (Life Technologies, Applied Biosystems, Forest City, Calif.) were used to analyse and report the following ABCB1 polymorphisms: rs1045642, rs2032582, rs1128503, rs2229109, and rs9282564.
Prior to analysis, data qualities were examined. For the ABCB1 variants, allelic and genotype frequencies were assessed in white and black patients separately, and Hardy Weinberg equilibrium (HWE) was tested. To analyze binary outcomes (RD, prolonged PACU secondary to RD and analgesic intervention need), logistic regression was performed. […] Thus, maximum FLACC scores were analyzed using a zero-inflated negative binomial model to appropriately capture the distribution of this variable. […] To select the best fitting model, log likelihood, Akaike and Bayesian Information criterion were compared, and residuals were examined. […] To assess the single SNP association with the outcomes, additive models were used, in which the genotypes were recoded and tested as continuous variables. For the four bi-allelic SNPs, genotypes were recoded to 0, 1 and 2 according to the number of minor alleles. For rs2032582, GG genotype was recoded as 0; GA and GT genotypes were combined and recoded as 1, and TT and TA genotypes as 2. Statistical modeling was conducted with white and black patients separately and combined. When races were combined, the effects of race and race*SNP interaction were tested.

CN1CC[C@]23c4c5ccc(O)c4O[C@H]2[C@@H](O)C=C[C@H]3[C@H]1C5 [morphine]
median of maximum FLACC scores (263 patients): 3
patients who needed analgesic intervention(s) (263 patients): 62%
Analges. % (analgesic interventions %) [1]: 88%
Maximum FLACC [1]: 5 (4-8)
Post-Operative morphine (Blacks, ABCB1 Rs1128503 CC, N=24, mean ± SD): 0.12 ± 0.08 mg/kg
Analges. % (analgesic interventions %) [2]: 89%
Maximum FLACC [2]: 6 (3-9)
Post-Operative morphine (Blacks, ABCB1 Rs1128503 TC, N=18, mean ± SD): 0.13 ± 0.05 mg/kg
Analges. % (analgesic interventions %) [3]: 100%
Maximum FLACC [3]: 4 (0-8)
Post-Operative morphine (Blacks, ABCB1 Rs1128503 TT, N=2, mean ± SD): 0.08 ± 0.03 mg/kg
Analges. % (analgesic interventions %) [4]: 100%
Maximum FLACC [4]: 4 (4-4)
Post-Operative morphine [4]: 0.08 mg/kg
Analges. % (analgesic interventions %) [5]: 91%
Maximum FLACC [5]: 5 (3-8)
Post-Operative morphine (Blacks, ABCB1 Rs2032582 GG, N=35, mean ± SD): 0.12 ± 0.07 mg/kg
Analges. % (analgesic interventions %) [6]: 75%
Maximum FLACC [6]: 8 (2-9)
Post-Operative morphine (Blacks, ABCB1 Rs2032582 GT, N=8, mean ± SD): 0.11 ± 0.04 mg/kg
Analges. % (analgesic interventions %) [7]: 100%
Maximum FLACC [7]: 8 (8-8)
Post-Operative morphine [7]: 0.04 mg/kg
Analges. % (analgesic interventions %) [8]: 88%
Maximum FLACC [8]: 5 (3-8)
Post-Operative morphine (Blacks, ABCB1 Rs2229109 CC, N=43, mean ± SD): 0.12 ± 0.06 mg/kg
Analges. % (analgesic interventions %) [9]: 88%
Maximum FLACC [9]: 5 (3-8)
Post-Operative morphine (Blacks, ABCB1 Rs9282564 AA, N=41, mean ± SD): 0.12 ± 0.07 mg/kg
Analges. % (analgesic interventions %) [10]: 100%
Maximum FLACC [10]: 8 (8-10)
Post-Operative morphine (Blacks, ABCB1 Rs9282564 GA, N=3, mean ± SD): 0.10 ± 0.00 mg/kg
Analges. % (analgesic interventions %) [11]: 89%
Maximum FLACC [11]: 5 (4-8)
Post-Operative morphine (Blacks, ABCB1 rs10456542 CC, N=27, mean ± SD): 0.12 ± 0.07 mg/kg
Analges. % (analgesic interventions %) [12]: 86%
Maximum FLACC [12]: 7 (1-8)
Post-Operative morphine (Blacks, ABCB1 rs10456542 TC, N=14, mean ± SD): 0.12 ± 0.05 mg/kg
Analges. % (analgesic interventions %) [13]: 100%
Maximum FLACC [13]: 8 (3-8)
Post-Operative morphine (Blacks, ABCB1 rs10456542 TT, N=3, mean ± SD): 0.12 ± 0.11 mg/kg
Analges. % (analgesic interventions %) [14]: 57%
Maximum FLACC [14]: 3 (0-5)
Post-Operative morphine (Whites, ABCB1 Rs1128503 CC, N=70, mean ± SD): 0.09 ± 0.04 mg/kg
Analges. % (analgesic interventions %) [15]: 57%
Maximum FLACC [15]: 2 (0-5)
Post-Operative morphine (Whites, ABCB1 Rs1128503 TC, N=102, mean ± SD): 0.10 ± 0.05 mg/kg
Analges. % (analgesic interventions %) [16]: 53%
Maximum FLACC [16]: 1 (0-5)
Post-Operative morphine (Whites, ABCB1 Rs1128503 TT, N=47, mean ± SD): 0.08 ± 0.04 mg/kg
Analges. % (analgesic interventions %) [17]: 43%
Maximum FLACC [17]: 2 (1-5)
Post-Operative morphine (Whites, ABCB1 Rs2032582 GA, N=7, mean ± SD): 0.09 ± 0.05 mg/kg
Analges. % (analgesic interventions %) [18]: 58%
Maximum FLACC [18]: 4 (0-6)
Post-Operative morphine (Whites, ABCB1 Rs2032582 GG, N=65, mean ± SD): 0.09 ± 0.04 mg/kg
Analges. % (analgesic interventions %) [19]: 57%
Maximum FLACC [19]: 2 (0-5)
Post-Operative morphine (Whites, ABCB1 Rs2032582 GT, N=100, mean ± SD): 0.09 ± 0.05 mg/kg
Analges. % (analgesic interventions %) [20]: 100%
Maximum FLACC [20]: 8 (8-8)
Post-Operative morphine [20]: 0.21 mg/kg
Analges. % (analgesic interventions %) [21]: 52%
Maximum FLACC [21]: 1 (1-5)
Post-Operative morphine (Whites, ABCB1 Rs2032582 TT, N=46, mean ± SD): 0.09 ± 0.04 mg/kg
Analges. % (analgesic interventions %) [22]: 50%
Maximum FLACC [22]: 2 (1-4)
Post-Operative morphine (Whites, ABCB1 Rs2229109 CA, N=14, mean ± SD): 0.06 ± 0.02 mg/kg
Analges. % (analgesic interventions %) [23]: 57%
Maximum FLACC [23]: 2 (0-5)
Post-Operative morphine (Whites, ABCB1 Rs2229109 CC, N=205, mean ± SD): 0.09 ± 0.05 mg/kg
Analges. % (analgesic interventions %) [24]: 56%
Maximum FLACC [24]: 2 (0-5)
Post-Operative morphine (Whites, ABCB1 Rs9282564 AA, N=171, mean ± SD): 0.09 ± 0.04 mg/kg
Analges. % (analgesic interventions %) [25]: 54%
Maximum FLACC [25]: 2 (0-4)
Post-Operative morphine (Whites, ABCB1 Rs9282564 GA, N=46, mean ± SD): 0.09 ± .05 mg/kg
Analges. % (analgesic interventions %) [26]: 100%
Maximum FLACC [26]: 7 (6-7)
Post-Operative morphine (Whites, ABCB1 Rs9282564 GG, N=2, mean ± SD): 0.16 ± 0.07 mg/kg
Analges. % (analgesic interventions %) [27]: 63%
Maximum FLACC [27]: 4 (0-6)
Post-Operative morphine (Whites, ABCB1 rs10456542 CC, N=49, mean ± SD): 0.09 ± 0.03 mg/kg
Analges. % (analgesic interventions %) [28]: 52%
Maximum FLACC [28]: 2 (0-4)
Post-Operative morphine (Whites, ABCB1 rs10456542 TC, N=100, mean ± SD): 0.09 ± 0.05 mg/kg
Analges. % (analgesic interventions %) [29]: 57%
Maximum FLACC [29]: 2 (1-5)
Post-Operative morphine (Whites, ABCB1 rs10456542 TT, N=70, mean ± SD): 0.10 ± 0.05 mg/kg
post-operative morphine in patients who needed intervention (average): 0.10 ± 0.05 mg/kg

Reference: patent US10878939B2, “Methods and compositions for personalized pain management” (Children's Hospital Medical Center, priority 2014, dated 2020)
